Test results taken from patent US12134616B2, “Tricyclic pesticidal compounds” (BASF SE, priority 2018, dated 2024).

Tests used:
Format in all cases: in vivo
[1] = tested on: vetch aphid (Megoura viciae); assay: Vetch aphid (Megoura viciae) broad bean leaf disk test, contact or systemic; conditions: foliar, 120 h, sprayed onto leaf disks, 5 days, read-out: mortality (aphid) in comparison with untreated controls
Procedure: (§1) If not otherwise specified, the test solutions are prepared as follows: The active compound is dissolved at the desired concentration in a mixture of 1:1 (vol:vol) distilled water:acteone. The test solution is prepared at the day of use. Test solutions are prepared in general at concentrations of 1000 ppm, 500 ppm, 300 ppm, 100 ppm and 30 ppm (wt/vol).
For evaluating control of vetch aphid (Megoura viciae) through contact or systemic means the test unit consisted of 24-well-microtiter plates containing broad bean leaf disks.
The compounds were formulated using a solution containing 75% v/v water and 25% v/v DMSO. Different concentrations of formulated compounds were sprayed onto the leaf disks at 2.5 μl, using a custom built micro atomizer, at two replications. After application, the leaf disks were air-dried and 5-8 adult aphids placed on the leaf disks inside the microtiter plate wells. The aphids were then allowed to suck on the treated leaf disks and incubated at about 23±1° C. and about 50±5% relative humidity for 5 days. Aphid mortality and fecundity was then visually assessed.

[2] = tested on: boll weevil (Anthonomus grandis); assay: Boll weevil (Anthonomus grandis) microtiter diet test, egg and larval mortality; conditions: 120 h, sprayed onto insect diet, 5 days, read-out: mortality (egg and larval) in comparison with untreated controls
Procedure: as §1
(§2) For evaluating control of boll weevil (Anthonomus grandis) the test unit consisted of 96-well-microtiter plates containing an insect diet and 5-10 A. grandis eggs. The compounds were formulated using a solution containing 75% v/v water and 25% v/v DMSO. Different concentrations of formulated compounds were sprayed onto the insect diet at 5 μl, using a custom built micro atomizer, at two replications. After application, microtiter plates were incubated at about 25±1° C. and about 75±5% relative humidity for 5 days. Egg and larval mortality was then visually assessed.

[3] = tested on: green peach aphid (Myzus persicae); assay: Green peach aphid (Myzus persicae) artificial diet/membrane test, systemic; conditions: 72 h, pipetted into aphid diet, 3 days, read-out: mortality (aphid) in comparison with untreated controls
Procedure: as §1
For evaluating control of green peach aphid (Myzus persicae) through systemic means the test unit consisted of 96-well-microtiter plates containing liquid artificial diet under an artificial membrane. The compounds were formulated using a solution containing 75% v/v water and 25% v/v DMSO. Different concentrations of formulated compounds were pipetted into the aphid diet, using a custom built pipetter, at two replications. After application, 5-8 adult aphids were placed on the artificial membrane inside the microtiter plate wells. The aphids were then allowed to suck on the treated aphid diet and incubated at about 23±1° C. and about 50±5% relative humidity for 3 days. Aphid mortality and fecundity was then visually assessed.

[4] = tested on: tobacco budworm (Heliothis virescens); assay: Tobacco budworm (Heliothis virescens) microtiter diet test, egg and larval mortality; conditions: 120 h, sprayed onto insect diet, 5 days, read-out: mortality (egg and larval) in comparison with untreated controls
Procedure: as §1
as §2, with “of tobacco budworm (Heliothis virescens)” for “of boll weevil (Anthonomus grandis)”, “and 15-25 H. virescens” for “and 5-10 A. grandis”, “at 10” for “at 5”, “about 28±1°” for “about 25±1°”, “about 80±5%” for “about 75±5%”

Measured: mortality at 2500 ppm

CCS(=O)(=O)c1cc(C(F)(F)F)cnc1-c1nc2cnc3c(OC(F)(F)F)cccc3c2n1C [Compound I.1, 2-[3-ethylsulfonyl-5-(trifluoromethyl)-2-pyridyl]-1-methyl-6-(trifluoromethoxy)imidazo[4,5-c]quinoline]
> 75%: all assays above

CCSc1cc(C(F)(F)F)cnc1-c1nc2cnc3c(OC(F)(F)F)cccc3c2n1C [Compound I.5, 2-[3-ethylsulfanyl-5-(trifluoromethyl)-2-pyridyl]-1-methyl-6-(trifluoromethoxy)imidazo[4,5-c]quinoline]
> 75%: [2] | [4]

CCS(=O)(=O)c1cccnc1-c1cn2c(ccc3c(C(F)(F)F)cc(C(F)(F)F)nc32)n1 [Compound I.54, 8-(3-ethylsulfonyl-2-pyridyl)-2,4-bis(trifluoromethyl)imidazo[1,2-a][1,8]naphthyridine]
> 75%: [1] | [2] | [4]

CCS(=O)(=O)c1cccnc1-c1nc2cc(C(F)(F)F)c3ccccc3n2n1 [Compound I.65, 2-(3-ethylsulfonyl-2-pyridyl)-5-(trifluoromethyl)-[1,2,4]triazolo[1,5-a]quinoline]
> 75%: all assays above
